Measured values from article PMC10680097 (Biochemistry, 2023).

Columns and labels:
[1] = test system: C4-reductase (HS:51/HS:53); experiment: NADPH oxidation at […] nm; assay type: biochemical, Campylobacter jejuni; details: apparent; 300 μM NADPH, 50 mM HEPES pH 7.5, 30 °C; substrate made with Cj1427
[2] = biological target: T1, C3/C5-epimerase (HS:42) (Campylobacter jejuni, UniProt F2X7E5); experiment: coupled turnover of purified […] to […], D2O exchange at C3 and C5, ESI-MS; assay type: biochemical; details: 5.0 mM NADPH and HS:42 C4-reductase, pH 8.0, 40 h
T1 construct: gene HS42.11
T1 sequence (F2X7E5 entry or part of it): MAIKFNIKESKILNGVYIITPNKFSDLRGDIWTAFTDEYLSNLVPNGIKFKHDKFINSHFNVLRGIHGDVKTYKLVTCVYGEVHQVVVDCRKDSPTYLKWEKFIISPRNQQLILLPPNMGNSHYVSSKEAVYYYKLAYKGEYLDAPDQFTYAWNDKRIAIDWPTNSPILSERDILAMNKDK

**Q.** Which Km [1] does the source give for Nc1nc2c(ncn2[C@@H]2O[C@H](COP(=O)(O)OP(=O)(O)O[C@H]3O[C@H]([C@H](O)CO)C(=O)[C@H](O)[C@@H]3O)[C@@H](O)[C@H]2O)c(=O)[nH]1 [compound 22, GDP-D-glycero-4-keto-α-D-lyxo-heptose] here?
**A.** 53 ± 6 µM

**Q.** What about the “coupled turnover of purified 22 to 30, D2O exchange at C3 and C5, ESI-MS” value [2] of the same molecule?
**A.** Epimerases from the same serotype of each C4-reductase were used for each reaction
